Values after ≈ are worked out from the molar mass of the structure shown. Where two headings read alike, the source gives them in different places.
What was measured:
[1] = Solubility in water by HPLC; assay type: physicochemical; details: water, kinetic from dmso stock
Description: The solubility of the compounds in water was assessed using HPLC analysis. Two 1.0 mg portions of the test compounds were dissolved in 10 μL of dimethyl sulfoxide; 1.0 mL of acetonitrile was added to one sample (standard), and 1.0 mL of water was added to the second sample (tested sample). Both vials were mixed in a shaker for 5 min, then centrifuged at 10,000 rpm for 5 min. The supernatants were collected and analyzed using Agilent 1290 Infinity (Agilent Technologies, Santa Clara, CA, USA) with a YMC-Triart C18 50 × 2.0 mm, 1.9 μm column. The concentration of the test compound in water was determined by comparing the peak areas of the standard (concentration 1.0 mg/mL) and the tested sample.

MRSA clinical isolates = test: MIC by broth microdilution against multidrug-resistant MRSA clinical isolates; assay type: cell-based, Staphylococcus aureus; details: 8 multidrug-resistant MRSA clinical isolates; tested 0.125-1 mg/L
Description: Clinical MRSA isolates with multidrug resistance were obtained from the collection of the Research Institute of Antimicrobial Chemotherapy, Smolensk State Medical Academy.
The MICs were determined using a broth microdilution method according to [42]. Briefly, serial dilutions of the tested compounds in 50 µL of Mueller Hinton broth (BD) were prepared in 96-well microplates. The antibiotics vancomycin and linezolid (Sigma-Aldrich, St. Louis, MO, USA) were used as a positive control. Bacterial suspensions of the tested MRSA strains were prepared in the Mueller Hinton broth (BD) with a concentration 1 × 10^6 CFU/mL, and then 50 µL aliquots were added to the prepared microplates. The final concentrations of the antibiotics in the wells were 1, 0.5, 0.25, and 0.125 mg/L, for the tested compounds, and 2 mg/L for vancomycin and linezolid. Negative control (lack of bacterial cells) and growth control (lack of compound) wells were included in all plates. The microplates were incubated at 37 °C for 18 h. The growth was assessed visually after incubation, and the MIC was assumed as the lowest compound concentration at which a noticeable growth of the microorganisms was inhibited (no visible growth). All experiments were conducted in triplicate.

[2] = read-out: Solubility in water, mass concentration
[3] = read-out: Solubility in water, molar concentration

| solubility at 5 min [1, 2] [µg/mL] | solubility at 5 min [1, 3] [µM] | MIC Range Against 8 MRSA Strains (MRSA clinical isolates) [µg/mL] | Compound |
| --- | --- | --- | --- |
| 7.53 | 20 | >1 | CCOC(=O)c1c(/N=N/N(C)Cc2ccccc2)c2cccnc2n1C [BX-SI020, Ethyl (E)-3-(3-benzyl-3-methyltriaz-1-en-1-yl)-1-methyl-1H-pyrrolo[2,3-b]pyridine-2-carboxylate] |
| 18.4 | 50 | 1 (≈ 2.82 µM) | CCOC(=O)c1[nH]c2cc(F)ccc2c1/N=N/N(C)Cc1ccccc1 [BX-SI037, Ethyl (E)-3-(3-benzyl-3-methyltriaz-1-en-1-yl)-6-fluoro-1H-indole-2-carboxylate] |
| 0.383 | 1 | >1 | CCOC(=O)c1[nH]c2cc(F)ccc2c1/N=N/N1CCN(Cc2ccccc2)CC1 [BX-SI038, Ethyl (E)-3-((4-benzylpiperazin-1-yl)diazenyl)-6-fluoro-1H-indole-2-carboxylate] |
